The text below walks through data of PubChem BioAssay AID328 (DTP/NCI, 2004).

This assay deals with BDF1 mice, P388 leukemia ip, median survival T/C. In words: NCI In Vivo Anticancer Drug Screen. Data for tumor model P388 Leukemia (intraperitoneal) in B6D2F1 (BDF1) mice. Conditions: endpoint: median survival time, higher = longer survival. The method in brief:
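Reported as T/C, where T is the survival measurement in dosed animals and C the same measurement in vehicle controls.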

Setting [1] is: dose: 25.0 mg/kg/injection, schedule: Q04DX003 (ip), vehicle: saline with Tween-80.
Setting [2] is: dose: 25.0 mg/kg/injection, schedule: Q01DX009 (ip), vehicle: saline with Tween-80.
The mark [3] stands for this setting: dose: 50.0 mg/kg/injection, schedule: Q01DX009 (ip), vehicle: saline with Tween-80.

“And” between values parts separate entries of the source, which are not always exact repeats. Identical values can stand only once. Toxic doses and inconclusive results are not listed.

`C/C=C(\C)C(=O)OC1C(=O)OC2CC3C(C)=CC(=O)C(O)C3(C)C3C4(O)OCC23C1C(C)C4O` (configuration not stated): the T/C is 89 % of control (dose: 0.06 mg/kg/injection, schedule: Q01DX009 (ip), vehicle: saline with Tween-80); 104 % of control (dose: 0.12 mg/kg/injection, schedule: Q01DX009 (ip), vehicle: saline with Tween-80); 98 % of control (dose: 0.25 mg/kg/injection, schedule: Q01DX009 (ip), vehicle: saline with Tween-80); 107 % of control (dose: 0.5 mg/kg/injection, schedule: Q01DX009 (ip), vehicle: saline with Tween-80); 103 % of control (dose: 1.0 mg/kg/injection, schedule: Q01DX009 (ip), vehicle: saline with Tween-80); 104 % of control (dose: 2.0 mg/kg/injection, schedule: Q01DX009 (ip), vehicle: saline with Tween-80). Also, the T/C runs as follows: (dose: 4.0 mg/kg/injection, schedule: Q01DX009 (ip), vehicle: saline with Tween-80) 110 % of control; (dose: 8.0 mg/kg/injection, schedule: Q01DX009 (ip), vehicle: saline with Tween-80) 100 % of control.

With `O=C(Nc1ccc(NC(=O)c2ccc(C3=NCCCN3)cc2)cc1)Nc1ccc(C2=NCCCN2)cc1`, the T/C (dose: 2.5 mg/kg/injection, schedule: Q01DX009 (ip), vehicle: saline with Tween-80) is 113 % of control; the T/C (dose: 5.0 mg/kg/injection, schedule: Q01DX009 (ip), vehicle: saline with Tween-80) is 168 % of control; the T/C (dose: 5.0 mg/kg/injection, schedule: Q04DX003 (ip), vehicle: saline with Tween-80) is 109 % of control; the T/C (dose: 6.6 mg/kg/injection, schedule: Q01DX009 (ip), vehicle: saline with Tween-80) was 175 % of control; the T/C (dose: 10.0 mg/kg/injection, schedule: Q01DX009 (ip), vehicle: saline with Tween-80) was 233 % of control and 204 % of control; the T/C (dose: 10.0 mg/kg/injection, schedule: Q04DX003 (ip), vehicle: saline with Tween-80) was 109 % of control. Besides, the T/C (dose: 15.0 mg/kg/injection, schedule: Q01DX009 (ip), vehicle: saline with Tween-80) was 233 % of control.

Take `c1cc[n+]2c(c1)-c1cccc[n+]1CC2`: the T/C (dose: 3.13 mg/kg/injection, schedule: Q04DX003 (ip), vehicle: saline) is 100 % of control; the T/C (dose: 6.25 mg/kg/injection, schedule: Q04DX003 (ip), vehicle: saline) was 95 % of control; the T/C (dose: 12.5 mg/kg/injection, schedule: Q04DX003 (ip), vehicle: saline) was 100 % of control.

Take `CC(=O)OC(C)(C(=O)/C=C/C(C)(C)O)C1C(O)CC2(C)C3CC=C4C(C=C(O)C(=O)C4(C)C)C3(C)C(=O)CC12C` (configuration not stated): the T/C was 100 % of control (dose: 0.25 mg/kg/injection, schedule: Q01DX010 (ip), vehicle: carboxymethylcellulose (CMC)); 96 % of control (dose: 0.5 mg/kg/injection, schedule: Q01DX010 (ip), vehicle: carboxymethylcellulose (CMC)); 98 % of control (dose: 1.0 mg/kg/injection, schedule: Q01DX010 (ip), vehicle: carboxymethylcellulose (CMC)); 117 % of control (dose: 2.0 mg/kg/injection, schedule: Q01DX010 (ip), vehicle: carboxymethylcellulose (CMC)); 105 % of control (dose: 4.0 mg/kg/injection, schedule: Q01DX010 (ip), vehicle: carboxymethylcellulose (CMC)).

On to `CCCCNC(=O)Nc1ccccc1Cl`, for which the T/C was 100 % of control (dose: 100.0 mg/kg/injection, schedule: Q04DX003 (ip), vehicle: saline with Tween-80); 100 % of control (dose: 200.0 mg/kg/injection, schedule: Q04DX003 (ip), vehicle: saline with Tween-80); 95 % of control (dose: 400.0 mg/kg/injection, schedule: Q04DX003 (ip), vehicle: saline with Tween-80).

Turning to `O=C(O)c1ccccc1Nc1ccc(Br)cc1`, the T/C (dose: 50.0 mg/kg/injection, schedule: Q01DX001 (ip), vehicle: saline with Tween-80) was 100 % of control and the T/C (dose: 100.0 mg/kg/injection, schedule: Q01DX001 (ip), vehicle: saline with Tween-80) was 91 % of control.

`O=C(C[n+]1ccc2ccccc2c1)c1ccc(Br)cc1`: the T/C is 100 % of control (dose: 7.03 mg/kg/injection, schedule: Q04DX003 (ip), vehicle: saline); 114 % of control (dose: 12.5 mg/kg/injection, schedule: Q01DX009 (ip), vehicle: saline); 108 % of control (dose: 14.06 mg/kg/injection, schedule: Q04DX003 (ip), vehicle: saline); 109 % of control (dose: 25.0 mg/kg/injection, schedule: Q01DX009 (ip), vehicle: saline); 100 % of control (dose: 28.12 mg/kg/injection, schedule: Q04DX003 (ip), vehicle: saline); 119 % of control (dose: 50.0 mg/kg/injection, schedule: Q01DX009 (ip), vehicle: saline). For the same compound, the T/C is 95 % of control (dose: 56.25 mg/kg/injection, schedule: Q04DX003 (ip), vehicle: saline) and 112 % of control (dose: 75.0 mg/kg/injection, schedule: Q01DX009 (ip), vehicle: saline).

Turning to `CCOC(=O)C(Cc1ccc(N(CCCl)CCCl)cc1)NC(=O)C(N)CO` (configuration not stated), the T/C is, setting by setting: (dose: 5.0 mg/kg/injection, schedule: Q04DX003 (ip), vehicle: water) 157 % of control; (dose: 10.0 mg/kg/injection, schedule: Q04DX003 (ip), vehicle: water) 263 % of control; (dose: 20.0 mg/kg/injection, schedule: Q04DX003 (ip), vehicle: water) 263 % of control; (dose: 40.0 mg/kg/injection, schedule: Q04DX003 (ip), vehicle: water) 105 % of control.

As to `O=C1C=C(N2CC2)c2ccccc2C1=O`, the T/C runs as follows: (dose: 2.5 mg/kg/injection, schedule: Q01DX009 (ip), vehicle: Klucel (hydroxypropylcellulose) (HPC)) 100 % of control; (dose: 5.0 mg/kg/injection, schedule: Q01DX009 (ip), vehicle: Klucel (hydroxypropylcellulose) (HPC)) 90 % of control; (dose: 10.0 mg/kg/injection, schedule: Q01DX009 (ip), vehicle: Klucel (hydroxypropylcellulose) (HPC)) 104 % of control; (dose: 11.0 mg/kg/injection, schedule: Q04DX003 (ip), vehicle: saline with Tween-80) 109 % of control; (dose: 16.5 mg/kg/injection, schedule: Q04DX003 (ip), vehicle: saline with Tween-80) 104 % of control; (dose: 20.0 mg/kg/injection, schedule: Q01DX009 (ip), vehicle: Klucel (hydroxypropylcellulose) (HPC)) 104 % of control. The T/C under setting [1] is 118 % of control.

Turning to `OC12CCC[N+]1(Cc1ccccc1)CCC2` (configuration not stated), the T/C (dose: 25.0 mg/kg/injection, schedule: Q01DX010 (ip), vehicle: carboxymethylcellulose (CMC)) is 90 % of control.

On to `O=C(/C=C/c1ccc(Cl)cc1)NCC(O)CO` (configuration not stated), for which, for the setting “dose: 400.0 mg/kg/injection, schedule: Q01DX009 (ip), vehicle: water”, the T/C was 91 % of control.

`CCC(=O)NC(C(=O)NC(C(=O)NC(CC(C)C)C(O)CC(=O)NC(C)C(=O)NC(CC(C)C)C(O)CC(=O)O)C(C)C)C(C)C` (configuration not stated): the T/C is, setting by setting: (dose: 12.5 mg/kg/injection, schedule: Q01DX009 (ip), vehicle: saline with Tween-80) 100 % of control; under setting [2], 109 % of control; under setting [3], 109 % of control and 114 % of control; (dose: 100.0 mg/kg/injection, schedule: Q01DX009 (ip), vehicle: saline with Tween-80) 94 % of control.

On to `Cc1ccc(S(=O)(=O)Nc2ccc([N+](=O)[O-])cc2[N+](=O)[O-])cc1`, for which the T/C under setting [2] was 95 % of control and the T/C under setting [3] is 92 % of control.

With `COC1CCC2=C(C1)C(=O)CC1c3ccccc3CN21` (configuration not stated), the T/C reads like this: under setting [1], 100 % of control; (dose: 50.0 mg/kg/injection, schedule: Q04DX003 (ip), vehicle: saline with Tween-80) 104 % of control.

`CCCCNC(C)(C)COC(=O)/C=C/c1ccc(OCCCC)cc1`: the T/C (dose: 6.25 mg/kg/injection, schedule: Q01DX010 (ip), vehicle: saline) is 100 % of control; the T/C (dose: 12.5 mg/kg/injection, schedule: Q01DX010 (ip), vehicle: saline) was 100 % of control; the T/C (dose: 25.0 mg/kg/injection, schedule: Q01DX010 (ip), vehicle: saline) was 113 % of control; the T/C (dose: 50.0 mg/kg/injection, schedule: Q01DX010 (ip), vehicle: saline) is 100 % of control.

On to `COc1ccc(C(CCl)(CCl)c2ccc(OC)cc2)cc1`, for which the T/C by setting is: (dose: 100.0 mg/kg/injection, schedule: Q01DX009 (ip), vehicle: gum acacia) 116 % of control; (dose: 100.0 mg/kg/injection, schedule: Q04DX003 (ip), vehicle: gum acacia) 87 % of control; (dose: 200.0 mg/kg/injection, schedule: Q01DX009 (ip), vehicle: gum acacia) 112 % of control; (dose: 200.0 mg/kg/injection, schedule: Q04DX003 (ip), vehicle: gum acacia) 104 % of control; (dose: 400.0 mg/kg/injection, schedule: Q01DX009 (ip), vehicle: gum acacia) 104 % of control; (dose: 400.0 mg/kg/injection, schedule: Q04DX003 (ip), vehicle: gum acacia) 95 % of control.
